Literature values in US11154586B2, “Treating sexual dysfunction” (Olive Therapeutics, LLC, priority 2016, dated 2021).

Key:
[1] = intranasal, men or couples, single agent

SMILES: CC[C@H](C)[C@@H]1NC(=O)[C@H](Cc2ccc(O)cc2)NC(=O)[C@@H](N)CSSC[C@@H](C(=O)N2CCC[C@H]2C(=O)N[C@@H](CC(C)C)C(=O)NCC(N)=O)NC(=O)[C@H](CC(N)=O)NC(=O)[C@H](CCC(N)=O)NC1=O [oxytocin]
- Effect on sexual function, Case 1 (person, 2 hours after intranasal 16 IU, on progesterone only pill, repeated 2 days later): increased sexual desire, stronger uterine contractions during orgasm, and greater satisfaction
- Effect on sexual function, Case 2 (person, intranasal, off-label for social anxiety, apparently also on lisdexamfetamine): broad spectrum enhancement of the patient's sexual function
- Effect on anorgasmia, Case 3 (person, intranasal, earlier dopamine agonist and growth hormone): sustained restoration of their ability to achieve orgasm
- Effect on sexual function, Case 1, third administration (same person, 2 weeks later, after switch to barrier method): did not produce the same sexual enhancement
- Effect on biological measures of sexual functioning [1]: does not alter biological measures of sexual functioning
